From US20110015264A1 (priority 2006, published 2011)
Like-named read-outs stand apart in the source and are kept apart here.

Legend:
[1] = test system: A/Victoria/3/75 (H3N2) influenza virus; design: species or system BALB/c mice; details: mouse, in vivo
[2] = test system: A/NWS/33 (H1N1) influenza virus; details: mouse, in vivo
H1N1 neuraminidase = H1N1 neuraminidase (UniProt P03470); details: read-out: IC50 against H1N1; Bantia et al. 2001; cited from earlier work
N9 neuraminidase = N9 neuraminidase (Influenza A virus, UniProt P03472); assay type: binding, A/H1N9 (NWS/G70) avian virus
[3] = molecular target: neuraminidase enzyme N9 from H1N9 virus (Influenza A virus, UniProt P03472); test: biochemical; design: species or system A/H1N9 (NWS/G70) avian virus; details: for IC90: read-out: IC90 against N9 enzyme
influenza = details: human, in vivo, po; cited from earlier work
influenza virus = test system: influenza virus; design: species or system BALB/c mice; details: mouse, in vivo

Chain of neuraminidase enzyme N9 from H1N9 virus (P03472 whole entry, looked up): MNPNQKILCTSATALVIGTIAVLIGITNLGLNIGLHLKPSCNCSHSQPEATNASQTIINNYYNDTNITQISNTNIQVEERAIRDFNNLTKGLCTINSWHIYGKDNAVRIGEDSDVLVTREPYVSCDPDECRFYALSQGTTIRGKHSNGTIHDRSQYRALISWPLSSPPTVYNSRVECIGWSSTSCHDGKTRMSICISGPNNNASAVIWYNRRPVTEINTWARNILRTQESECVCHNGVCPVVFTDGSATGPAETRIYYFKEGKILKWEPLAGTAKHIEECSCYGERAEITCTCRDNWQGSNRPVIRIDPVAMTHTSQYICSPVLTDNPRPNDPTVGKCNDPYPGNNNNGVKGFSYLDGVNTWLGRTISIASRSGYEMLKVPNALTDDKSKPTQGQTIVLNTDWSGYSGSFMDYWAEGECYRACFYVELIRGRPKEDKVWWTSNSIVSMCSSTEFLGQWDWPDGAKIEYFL
Chain of N9 neuraminidase (P03472 whole entry, looked up): as above
Chain of H1N1 neuraminidase (P03470 whole entry, looked up): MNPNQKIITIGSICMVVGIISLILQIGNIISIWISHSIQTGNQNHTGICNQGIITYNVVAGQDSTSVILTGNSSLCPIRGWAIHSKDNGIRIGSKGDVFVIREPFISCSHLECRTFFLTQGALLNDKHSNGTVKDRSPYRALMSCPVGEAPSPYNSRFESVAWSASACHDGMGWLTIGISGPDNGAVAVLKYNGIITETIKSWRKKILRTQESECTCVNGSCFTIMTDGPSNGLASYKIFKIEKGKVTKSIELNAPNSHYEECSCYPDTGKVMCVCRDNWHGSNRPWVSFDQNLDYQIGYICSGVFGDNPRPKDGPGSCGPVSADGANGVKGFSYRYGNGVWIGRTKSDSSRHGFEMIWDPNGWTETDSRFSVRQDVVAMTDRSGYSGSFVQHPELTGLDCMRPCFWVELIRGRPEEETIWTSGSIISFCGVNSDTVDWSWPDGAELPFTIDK

CCOC(=O)C1=C[C@@H](OC(CC)CC)[C@H](NC(C)=O)[C@@H](N)C1 [oseltamivir, reference compound]
mean weight loss by day 8 ([1]; po): about 5.1 g | mean weight loss by day 8, % of weight ([1]; po): 28% | survived (protection against lethality) ([1]; po): 9/10 | survival rate [2]: 10% | mice survived ([2]; 10 mg/kg): 3 out of 10 | protection against lethality ([2]; 10 mg/kg): 30% | weight loss ([2]; 10 mg/kg): about 4 g | weight loss and mortality ([2]; 10 mg/kg): no efficacy | weight loss, % of initial weight ([2]; 10 mg/kg): 25 % of initial weight | greatest mean weight loss at day 8 ([2]; po, 2 mg/kg/day): 1.34 g | greatest mean weight loss at day 8 ([2]; po, 10 mg/kg/day): 0 g

CCC(CC)C(NC(C)=O)[C@@H]1[C@H](O)[C@@H](C(=O)O)C[C@H]1NC(=N)N (stereo partly drawn) [peramivir, (1S,2S,3R,4R)-3-(1-Acetamido-2-ethylbutyl)-4-guanidino-2-hydroxycyclopentane-carboxylic acid]
mean weight loss by day 8 [1]: 4.5 g | mean weight loss by day 8, % of weight [1]: 25% | survived (protection against lethality) [1]: 9/10 | IC50 (H1N1 neuraminidase): 0.11 nM | prevention of weight loss in infected mice [2]: effective in preventing weight loss | survival [2]: 40% | survival rate [2]: 50% | effectiveness in terms of survival ([2]; 1 mg/kg): not effective | mean days to death ([2]; 1 mg/kg): significant increase | weight loss and mortality ([2]; 10 mg/kg): significantly reduced | weight loss by day 5 ([2]; 10 mg/kg): no weight loss | weight loss, % of initial weight ([2]; 10 mg/kg): about 1.7 % of initial weight | signs of drug-related toxicity ([2]; 20 mg/kg): No signs of drug-related toxicity | survival ([2]; po, 1 mg/kg/day): 60% | weight loss by day 5 ([2]; po, 10 mg/kg): 0.22 g | protection against lethality ([2]; po, 10 mg/kg/day): Complete protection against lethality | t1/2 of dissociation from N9 neuraminidase (N9 neuraminidase): > 24 h | IC50 [3]: 1.3 ± 0.4 nM | IC90 [3]: 5 nM | inhibitory effect on influenza in humans (influenza): undesirably low inhibitory effect | effectiveness of delayed treatment (influenza virus): highly effective | protection against lethality (influenza virus): complete protection against lethality | weight loss by day 5 (influenza virus): no significant weight loss | weight loss by day 5 (influenza virus; po): no significant weight loss

CC(=O)N[C@H]1[C@H]([C@H](O)[C@H](O)CO)OC(C(=O)O)=C[C@@H]1N=C(N)N [zanamivir, reference compound]
t1/2 of dissociation from N9 neuraminidase (N9 neuraminidase): 1.25 h | IC90 [3]: 10 nM
